Patent US9067943B2, “[1,2,3]triazolo[4,5-D]pyrimidine derivatives” (priority 2011, dated 2015)
Read-outs that look alike come from different tables or passages of the source.

What was measured:
[1] = biological target: T1, human CB1 receptors (Homo sapiens, UniProt P21554); experiment: cAMP assay; type: cell-based
T1 construct: expressed in transfected cells; host or cells: CHO cells
In short: (§1)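 CHO cells expressing human CB1 or CB2 were preincubated 30 min at 30 °C in Krebs Ringer bicarbonate buffer with 1 mM IBMX, then exposed to compounds for 30 min at 30 °C. cAMP was measured by time-resolved FRET against a cAMP standard curve, and EC50 values were derived.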

[2] = biological target: T2, human CB2 receptors (Homo sapiens, UniProt P34972); experiment: cAMP assay; type: cell-based
T2 construct: expressed in transfected cells; host or cells: CHO cells
T2 sequence (P34972 whole entry): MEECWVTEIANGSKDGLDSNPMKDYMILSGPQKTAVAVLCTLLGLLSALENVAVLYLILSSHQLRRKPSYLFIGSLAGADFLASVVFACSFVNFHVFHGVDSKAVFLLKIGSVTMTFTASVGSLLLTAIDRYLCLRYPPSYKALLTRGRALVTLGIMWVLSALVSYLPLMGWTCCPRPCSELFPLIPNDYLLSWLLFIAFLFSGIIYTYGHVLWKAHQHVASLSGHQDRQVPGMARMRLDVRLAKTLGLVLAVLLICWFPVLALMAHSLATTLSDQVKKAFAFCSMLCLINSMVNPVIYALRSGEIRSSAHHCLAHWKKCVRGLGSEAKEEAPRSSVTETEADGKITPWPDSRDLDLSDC
In short: as §1

[3] = functional cAMP assay, CHO cells expressing human CB2, read-out: human CB2 EC50

T1 sequence (P21554 whole entry): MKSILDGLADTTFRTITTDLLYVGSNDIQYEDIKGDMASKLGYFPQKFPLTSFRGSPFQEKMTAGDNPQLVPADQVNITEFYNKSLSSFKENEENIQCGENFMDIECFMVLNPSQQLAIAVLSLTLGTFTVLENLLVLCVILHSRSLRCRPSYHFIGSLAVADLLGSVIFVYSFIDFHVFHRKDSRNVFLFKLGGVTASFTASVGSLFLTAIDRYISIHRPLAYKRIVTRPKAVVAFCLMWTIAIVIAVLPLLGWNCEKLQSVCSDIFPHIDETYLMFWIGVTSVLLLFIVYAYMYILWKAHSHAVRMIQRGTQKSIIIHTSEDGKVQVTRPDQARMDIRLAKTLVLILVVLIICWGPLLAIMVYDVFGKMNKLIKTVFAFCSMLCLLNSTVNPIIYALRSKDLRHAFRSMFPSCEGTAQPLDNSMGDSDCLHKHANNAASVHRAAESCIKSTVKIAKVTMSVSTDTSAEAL

| SMILES | EC50 [1] [µM] | EC50 [2] [µM] | EC50 [2, 3] [µM] |
| --- | --- | --- | --- |
| CC(C)(C)c1nc(N2CC[C@@](C)(O)C2)c2nn(CCC(F)(F)F)nc2n1 [Example 132-b, (R)-1-[5-tert-Butyl-2-(3,3,3-trifluoro-propyl)-2H-[1,2,3]triazolo[4,5-d]pyrimidin-7-yl]-3-methyl-pyrrolidin-3-ol] | > 10 | 0.0698 |  |
| CC(C)(C)c1nc(N2CC[C@](C)(O)C2)c2nn(Cc3nnnn3C3CC3)nc2n1 [Example 133-a, (S)-1-[5-tert-Butyl-2-(1-cyclopropyl-1H-tetrazol-5-ylmethyl)-2H-[1,2,3]triazolo[4,5-d]pyrimidin-7-yl]-3-methyl-pyrrolidin-3-ol] | > 10 |  | 0.126 |
| CC(C)(C)c1nc(N2CC[C@@](C)(O)C2)c2nn(Cc3nnnn3C3CC3)nc2n1 [Example 133-b, (R)-1-[5-tert-Butyl-2-(1-cyclopropyl-1H-tetrazol-5-ylmethyl)-2H-[1,2,3]triazolo[4,5-d]pyrimidin-7-yl]-3-methyl-pyrrolidin-3-ol] | > 10 |  | 0.547 |
| CC(=O)N[C@H]1CCN(c2nc(OCC(C)(C)C)nc3nn(Cc4ccccc4Cl)nc23)C1 [Example 134, N—{(S)-1-[2-(2-Chloro-benzyl)-5-(2,2-dimethyl-propoxy)-2H-[1,2,3]triazolo[4,5-d]pyrimidin-7-yl]-pyrrolidin-3-yl}-acetamide] | > 10 |  | 0.682 |
| CC(=O)N[C@H]1CCN(c2nc(OCC(C)(C)C)nc3nn(Cc4ncccc4Cl)nc23)C1 [Example 135, N—{(S)-1-[2-(3-Chloro-pyridin-2-ylmethyl)-5-(2,2-dimethyl-propoxy)-2H-[1,2,3]triazolo[4,5-d]pyrimidin-7-yl]-pyrrolidin-3-yl}-acetamide] | > 10 |  | 0.606 |
| CC(C)(C)Nc1nc(N2CCC(F)(F)C2)c2nn(Cc3ccccc3C(F)(F)F)nc2n1 [Example 136, tert-Butyl-[7-(3,3-difluoro-pyrrolidin-1-yl)-2-(2-trifluoromethyl-benzyl)-2H-[1,2,3]triazolo[4,5-d]pyrimidin-5-yl]-amine] | > 10 | 0.035 |  |
| CC(C)(C)Nc1nc(N2CCC(F)(F)C2)c2nn(Cc3ccccc3S(C)(=O)=O)nc2n1 [Example 137, tert-Butyl-[7-(3,3-difluoro-pyrrolidin-1-yl)-2-(2-methanesulfonyl-benzyl)-2H-[1,2,3]triazolo[4,5-d]pyrimidin-5-yl]-amine] | > 10 | 0.0053 |  |
| CC(C)(C)Nc1nc(N2CCC(F)(F)C2)c2nn(Cc3ncccc3Cl)nc2n1 [Example 138, tert-Butyl-[2-(3-chloro-pyridin-2-ylmethyl)-7-(3,3-difluoro-pyrrolidin-1-yl)-2H-[1,2,3]triazolo[4,5-d]pyrimidin-5-yl]-amine] | > 10 | 0.054 |  |
| Cn1nnnc1Cn1nc2nc(NC(C)(C)C)nc(N3CCC(F)(F)C3)c2n1 [Example 139, tert-Butyl-[7-(3,3-difluoro-pyrrolidin-1-yl)-2-(1-methyl-1H-tetrazol-5-ylmethyl)-2H-[1,2,3]triazolo[4,5-d]pyrimidin-5-yl]-amine] | > 10 | 0.0281 |  |
| Cc1nonc1Cn1nc2nc(NC(C)(C)C)nc(N3CCC(F)(F)C3)c2n1 [Example 140, tert-Butyl-[7-(3,3-difluoro-pyrrolidin-1-yl)-2-(4-methyl-furazan-3-ylmethyl)-2H-[1,2,3]triazolo[4,5-d]pyrimidin-5-yl]-amine] | > 10 | 0.0061 |  |
| CC(=O)N[C@H]1CCN(c2nc(O[C@@H](C)C(F)(F)F)nc3nn(Cc4ccccc4Cl)nc23)C1 [Example 141, N—{(S)-1-[2-(2-Chloro-benzyl)-5-((S)-2,2,2-trifluoro-1-methyl-ethoxy)-2H-[1,2,3]triazolo[4,5-d]pyrimidin-7-yl]-pyrrolidin-3-yl}-acetamide] | > 10 |  | 1.15 |
| CC(=O)N[C@H]1CCN(c2nc(O[C@@H](C)C(F)(F)F)nc3nn(Cc4ccccc4C(F)(F)F)nc23)C1 [Example 142, N—{(S)-1-[2-(2-Trifluoromethyl-benzyl)-5-((S)-2,2,2-trifluoro-1-methyl-ethoxy)-2H-[1,2,3]triazolo[4,5-d]pyrimidin-7-yl]-pyrrolidin-3-yl}-acetamide] | > 10 |  | 1.11 |
| CC(=O)N[C@H]1CCN(c2nc(O[C@@H](C)C(F)(F)F)nc3nn(Cc4ccccc4S(C)(=O)=O)nc23)C1 [Example 143, N—{(S)-1-[2-(2-Methanesulfonyl-benzyl)-5-((S)-2,2,2-trifluoro-1-methyl-ethoxy)-2H-[1,2,3]triazolo[4,5-d]pyrimidin-7-yl]-pyrrolidin-3-yl}-acetamide] | > 10 |  | 1.73 |
| CC(=O)N[C@H]1CCN(c2nc(NC(C)(C)C)nc3nn(Cc4ccccc4Cl)nc23)C1 [Example 144, N—{(S)-1-[5-tert-Butylamino-2-(2-chloro-benzyl)-2H-[1,2,3]triazolo[4,5-d]pyrimidin-7-yl]-pyrrolidin-3-yl}-acetamide] | > 10 |  | 1.95 |
| Cn1nnnc1Cn1nc2nc(NC(C)(C)C)nc(N3CC[C@H](O)C3)c2n1 [Example 145, (S)-1-[5-tert-Butylamino-2-(1-methyl-1H-tetrazol-5-ylmethyl)-2H-[1,2,3]triazolo[4,5-d]pyrimidin-7-yl]-pyrrolidin-3-ol] | > 10 |  | 1.09 |
